Test results: patent publication US20260234150A1, “COMPOUND FOR INHIBITING NLRP3, PREPARATION METHOD, AND USE” (DOVETREE MEDICINES UNUS, INC., priority 2023, published 2026)

Experiments:
[1] = target: T1, His6-Flag-TEV-NLRP3 (134-1036) (Homo sapiens, UniProt Q96P20); test: NLRP3 fluorescence polarization (FP) binding assay, competition with probe NP3-301; conditions: competition with NP3-301 for binding to NLRP3 (134-1036), 30 nM protein
T1 construct: fused on or other part: N-terminal His6 tag, Flag tag and TEV cleavage site
T1 sequence (Q96P20 134-1036 limits assumed): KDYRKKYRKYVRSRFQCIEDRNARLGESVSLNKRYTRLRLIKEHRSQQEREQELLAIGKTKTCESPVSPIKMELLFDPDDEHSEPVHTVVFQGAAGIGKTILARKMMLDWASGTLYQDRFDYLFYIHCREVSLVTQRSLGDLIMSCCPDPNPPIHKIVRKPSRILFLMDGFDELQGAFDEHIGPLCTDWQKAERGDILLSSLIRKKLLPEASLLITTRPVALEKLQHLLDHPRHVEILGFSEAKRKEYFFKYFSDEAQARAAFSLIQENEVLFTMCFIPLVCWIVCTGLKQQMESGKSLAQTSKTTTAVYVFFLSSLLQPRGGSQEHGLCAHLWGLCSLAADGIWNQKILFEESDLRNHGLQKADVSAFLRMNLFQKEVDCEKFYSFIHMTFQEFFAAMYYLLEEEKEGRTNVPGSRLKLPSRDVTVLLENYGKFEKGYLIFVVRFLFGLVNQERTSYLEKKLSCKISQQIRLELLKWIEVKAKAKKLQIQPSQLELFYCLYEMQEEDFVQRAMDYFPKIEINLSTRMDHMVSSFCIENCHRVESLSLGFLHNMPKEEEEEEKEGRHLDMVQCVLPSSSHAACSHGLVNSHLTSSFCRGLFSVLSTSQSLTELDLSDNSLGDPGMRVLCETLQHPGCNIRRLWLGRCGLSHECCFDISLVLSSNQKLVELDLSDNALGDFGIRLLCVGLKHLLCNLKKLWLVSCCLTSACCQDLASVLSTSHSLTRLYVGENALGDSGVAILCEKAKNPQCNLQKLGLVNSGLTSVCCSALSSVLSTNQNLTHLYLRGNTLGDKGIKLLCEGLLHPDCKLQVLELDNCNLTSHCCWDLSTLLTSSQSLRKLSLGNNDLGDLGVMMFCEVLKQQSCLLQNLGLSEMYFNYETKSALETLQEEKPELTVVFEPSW
Experimental: This experiment uses fluorescence polarization technology to detect and evaluate the binding assay.
The fluorescent probe used in this assay is the compound NP3-301 in the Journal of Molecular Biology (2021) 433, 167309, which was synthesized with reference to this literature.
His6-Flag-TEV-NLRP3 (134-1036) protein (SEQ NO. 1) was purchased from Kaihuiruizhi Biotech (Shanghai) Co., Ltd. (ChemPartner), and was customed for expression.
Prepare 1× assay buffer: 50 mM Hepes, pH 7.4, 150 mM NaCl, 2.5 mM MgCl2, 0.005% Tween-20, 1 mM TCEP, 100 μM ATP.
First, 2.5 μL of 4× compound solution was added to a black shallow 384-well plate (Greiner, 784076), the shallow well plate was sealed, and centrifuged at 1000 rpm for 1 min; then 2× NLPR3 protein solution (final concentration of 30 nM) was added, the shallow well plate was sealed, centrifuged at 1000 rpm for 1 min, and incubated at room temperature for 60 min. Finally, 2.5 μL of 4× NP3-301 (final concentration of 0.5 nM) was added, the shallow well plate was sealed, centrifuged at 1000 rpm for 1 min, and incubated at room temperature for 30 min. Envision was used to read the fluorescence polarization values of λex=485+20 nm and kem=535+25 nm. GraphPad Prism 9.5.0 was used to analyze the data, and the IC50 value of the competition between the compound and NP3-301 for binding to His6-Flag-TEV-NLRP3 (134-1036) was fitted by four-parameter logistic. The compounds of the present disclosure have good NLRP3 binding activity, and the test results of some representative compounds are shown in Table 1.

[2] = system: IL-1β secretion of THP-1 cells; test: Effect of NLRP3 inhibitor on IL-1β secretion of THP-1 cells (AlphaLISA); assay type: cell-based; conditions: Homo sapiens; PMA, LPS and Nigericin stimulated THP-1 cells, IL-1β in supernatant; read-out: IC50 (nM), THP-1 cells to detect NLRP3 inhibitors
Experimental: This experiment used the PerkinElmer AlphaLISA_human_IL1β kit (AL220 C/F). The detection buffer was RPMI-1640+10FBS. AlphaLISA Immunoassay Buffer, AlphaLISA Anti-IL1β Acceptor beads, Streptavidin (SA)-coated Donor beads, and Biotinylated Antibody Anti-IL1β were all included in the kit.
The density of THP1 cells was adjusted to 4×10^5 cells/mL, PMA (final concentration 50 nM) was added, inoculated into 96-well flat-bottom plates at 200 μL/well, and stimulated overnight at 37° C., 5% CO2 (try to <16h). The next day, the supernatant was discarded, and the flat washed twice with DPBS ([…]/time). Then LPS solution (final concentration of 100 ng/ml) was added at 198 μL/well, incubated at 37° C., 5% CO2 for 3h. 1 μL of the corresponding concentration of compounds was added to each well according to the experimental MAP, incubated at 37° C., 5% CO2 for 1 h. 1 μL Nigericin (final concentration of […]) was added to each well, incubated overnight at 5% CO2 (>18h). On the third day, 5 μL of supernatant was taken, diluted 20 times, and the content of IL-Iβ in the supernatant was detected by Human Interleukin 1 beta (IL1β) Kit. Envision was used to read the AlphaLISA test value of Ex=680/[…]. GraphPad Prism 9.5.0 was used to analyze the data, and the IC50 value of the compound for IL-Iβ antagonism was fitted by four-parameter Logistic.

SMILES | IC50 [1] [nM] | IC50 [2] [nM]
Cc1cc(C(F)(F)F)cc(O)c1-c1ccc2[nH]c(NCC(C)(C)O)nc2n1 [Compound 6] | – | 100 to 500
CC(=O)NC[C@@H]1COCCN1c1nc2c(C)cc(-c3c(C)cc(C(F)(F)F)cc3O)nn2n1 [Compound 442] | ≤ 100 | < 50
CCC(=O)N1CCOC[C@H]1CNc1nc2nc(-c3c(C)cc(C(F)(F)F)cc3O)ccc2o1 [Compound 250] | ≤ 100 | 100 to 500
Cc1cc(C(F)(F)F)cc(O)c1-c1ccc2[nH]c(CC(N)=O)nc2n1 [Compound 5] | ≤ 100 | 100 to 500
Cc1cc(C(F)(F)F)cc(O)c1-c1ccc2oc(NC[C@@H](C)O)nc2n1 [Compound 413] | ≤ 100 | 50 to 100
CCN1CCC[C@@H](Nc2nc3nc(-c4c(C)cc(C(F)(F)F)cc4O)ccn3n2)C1 [Compound 448] | ≤ 100 | < 50
CC(=O)NC[C@@H]1COCCN1c1nc2nc(-c3c(C)cc(C(F)(F)F)cc3O)cc(C)n2n1 [Compound 441] | ≤ 100 | < 50
CCN1C[C@H](F)C[C@@H](Nc2nc3nc(-c4c(C)cc(C(F)(F)F)cc4O)ccc3o2)C1 [Compound 397] | ≤ 100 | 100 to 500
Cc1cc(C(F)(F)F)cc(O)c1-c1ccc2nc(NC[C@@H]3COCCN3S(C)(=O)=O)nn2n1 [Compound 421] | 500 to 1000 | –
Cc1cc(C(F)(F)F)cc(O)c1-c1ccc2oc(N3CC4CC(C3)O4)nc2n1 [Compound 378] | 100 to 500 | –
CC(=O)N1CCC[C@@H](Nc2nc3nc(-c4c(C)cc(C(F)(F)F)cc4O)ncc3[nH]2)C1 [Compound 461] | 100 to 500 | –
Cc1cc(C(F)(F)F)cc(O)c1-c1cc2ccn(C3CS(=O)(=O)C3)c2nn1 [Compound 125] | 100 to 500 | –
CC(=O)N1CC[C@@H](CNc2nc3nc(-c4c(C)cc(C(F)(F)F)cc4O)ccc3o2)C1 [Compound 271] | 100 to 500 | –
Cc1cc(C(F)(F)F)cc(O)c1-c1ccc2oc(N3CCCOCC3)nc2n1 [Compound 377] | ≤ 100 | –
Cc1cc(C(F)(F)F)cc(O)c1-c1ccc2[nH]c(N)nc2n1 [Compound 1] | 100 to 500 | –
Cc1cc(C(F)(F)F)cc(O)c1-c1ccc2oc(N3CC4CC(C3)N4S(C)(=O)=O)nc2n1 [Compound 395] | ≤ 100 | –
CCN1C[C@H](Nc2nc3nc(-c4c(C)cc(C(F)(F)F)cc4O)ccc3o2)CC(F)(F)C1 [Compound 398] | ≤ 100 | –
Cc1cc(Cl)cc(O)c1-c1ccc2nc(N3CCOCC3)nn2n1 [Compound 420] | ≤ 100 | –
Cc1cc(C(F)(F)F)cc(O)c1-c1ccc2oc(N[C@@H]3CCCN(CC#N)C3)nc2n1 [Compound 402] | ≤ 100 | –

The next lines start with the values.

IC50 [1] [nM] | IC50 [2] [nM] | SMILES
≤ 100 | < 50 | Cc1cc(C(F)(F)F)cc(O)c1-c1cc(C)c2nc(N3CCOCC3)nn2n1 [Compound 424]
≤ 100 | 100 to 500 | CCN1CCCC(c2nc3nc(-c4c(C)cc(C(F)(F)F)cc4O)ccc3[nH]2)C1 (stereo not drawn) [Compound 10]
≤ 100 | 100 to 500 | Cc1cc(C(F)(F)F)cc(O)c1-c1ccc2oc(NC[C@@H]3COCCN3C(=O)C(C)C)nc2n1 [Compound 248]
≤ 100 | < 50 | CCN1CCC[C@@H](Nc2nc3c(C)cc(-c4c(C)cc(C(F)(F)F)cc4O)nn3n2)C1 [Compound 447]
≤ 100 | < 50 | Cc1cc(C(F)(F)F)cc(O)c1-c1ccc2nc(N[C@@H]3CCCN(C)C3)nn2n1 [Compound 445]
≤ 100 | 50 to 100 | Cc1cc(C(F)(F)F)cc(O)c1-c1ccc2[nH]c(C3CCCNC3)nc2n1 (stereo not drawn) [Compound 9]
≤ 100 | 100 to 500 | Cc1cc(C(F)(F)F)cc(O)c1-c1ccc2oc(NC[C@@H]3COCCN3C(=O)C(F)F)nc2n1 [Compound 249]
≤ 100 | < 50 | Cc1cc(C(F)(F)F)cc(O)c1-c1ccc2oc(N3CCN(S(=O)(=O)C4CC4)CC3)nc2n1 [Compound 392]
≤ 100 | 50 to 100 | CCS(=O)(=O)N1CCN(c2nc3nc(-c4c(C)cc(C(F)(F)F)cc4O)ccc3o2)CC1 [Compound 388]
≤ 100 | 50 to 100 | Cc1cc(C(F)(F)F)cc(O)c1-c1cc(C)n2nc(N3CCOCC3)nc2n1 [Compound 440]
≤ 100 | 50 to 100 | Cc1cc(C(F)(F)F)cc(O)c1-c1ccc2oc(NC[C@@H]3COCCN3C(=O)C(F)(F)F)nc2n1 [Compound 247]
≤ 100 | 100 to 500 | Cc1cc(C(F)(F)F)cc(O)c1-c1ccc2nc(N3CCS(=O)(=O)CC3)nn2n1 [Compound 422]
≤ 100 | 50 to 100 | Cc1cc(Cl)cc(O)c1-c1ccc2oc(N3CCS(=O)(=O)CC3)nc2n1 [Compound 387]
≤ 100 | < 50 | Cc1cc(C(F)(F)F)cc(O)c1-c1cc(C)c2nc(N[C@@H]3CCCN(CCO)C3)nn2n1 [Compound 456]
≤ 100 | < 50 | Cc1cc(C(F)(F)F)cc(O)c1-c1ccc2oc(N[C@@H]3CCCN(CCO)C3)nc2n1 [Compound 404]
≤ 100 | < 50 | Cc1cc(C(F)(F)F)cc(O)c1-c1ccc2oc(NC[C@@H]3COCCN3S(=O)(=O)C3CC3)nc2n1 [Compound 260]
≤ 100 | 100 to 500 | CCN1CCCC(N2CC(=O)Nc3cc(-c4c(C)cc(C(F)(F)F)cc4O)nnc32)C1 (stereo not drawn) [Compound 12]
≤ 100 | < 50 | Cc1cc(C(F)(F)F)cc(O)c1-c1ccc2oc(NC[C@@H]3COCCN3C(=O)C3CC3)nc2n1 [Compound 257]
≤ 100 | < 50 | Cc1cc(C(F)(F)F)cc(O)c1-c1ccn2nc(N3CCOCC3)nc2n1 [Compound 426]
≤ 100 | < 50 | CCN1CCC[C@@H](Nc2nc3ccc(-c4c(C)cc(C(F)(F)F)cc4O)nn3n2)C1 [Compound 439]
≤ 100 | < 50 | Cc1cc(C(F)(F)F)cc(O)c1-c1ccc2oc(N[C@@H]3CCCN(C4CC4)C3)nc2n1 [Compound 399]
≤ 100 | 50 to 100 | Cc1cc(C(F)(F)F)cc(O)c1-c1ccc2oc(N3CCOC[C@H]3C)nc2n1 [Compound 371]
≤ 100 | < 50 | Cc1cc(C(F)(F)F)cc(O)c1-c1ccc2oc(N3CCN(S(C)(=O)=O)CC3)nc2n1 [Compound 390]
≤ 100 | 100 to 500 | Cc1cc(C(F)(F)F)cc(O)c1-c1ccc2nc(N3CCOCC3)nn2n1 [Compound 423]
≤ 100 | 100 to 500 | Cc1cc(C(F)(F)F)cc(O)c1-c1ccc2oc(N3CC4CCC(C3)O4)nc2n1 [Compound 381]
≤ 100 | 50 to 100 | Cc1cc(C(F)(F)F)cc(O)c1-c1ccc2oc(N)nc2n1 [Compound 14]
